Series [1] in a line: Half life in iv dosed rat. It is filed as ADME, organism-based. The conditions noted are these: in vivo.
Series [2] in a line: Oral bioavailability in rat. It is filed as ADME, organism-based. Conditions: in vivo.

In general, half-life refers to how long it takes for the measured level to halve. High values mean slow loss, low ones fast loss. As a reminder, the bioavailability is the share of a dose that reaches the circulation, judged against a reference dose that is usually intravenous. Higher therefore signals good availability. With `CCCN(CCC)CCCCN(C)Cc1ccc(CN(Cc2ncc[nH]2)Cc2nccn2C)cc1`, the half-life in series [1] is 99 h. This compound showed a bioavailability in series [2] of 21%.

The record behind these values is ChEMBL document CHEMBL1240366, “Blockade of X4-tropic HIV-1 cellular entry by GSK812397, a potent noncompetitive CXCR4 receptor antagonist” (Antimicrob Agents Chemother, 2010).
